# The supplement of paper PMC10307832
# Experiments:
# Assay in all cases: relative viability (nuclei count vs DMSO), 5 days (fraction); higher = more cells survive
# [1] = compound: COc1cccc2c1C(=O)c1c(O)c3c(c(O)c1C2=O)C[C@@](O)(C(=O)CO)C[C@@H]3O[C@H]1C[C@H](N)[C@H](O)[C@H](C)O1 [Doxorubicin] + COc1cc2c(Oc3ccc(NC(=O)C4(C(=O)Nc5ccc(F)cc5)CC4)cc3F)ccnc2cc1OCCCN1CCOCC1 [Foretinib] (partner 0.25 µM)
# Summary of the method: (§1)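 Medians of duplicate plates are given as relative viability. That measure is the nuclei count in treated wells divided by the count in vehicle wells. Counts were taken on 4× images of lung cancer cell lines in 1536-well plates, 5 days after pin-tool dosing the day after seeding with one drug alone or a fixed anchor-drug dose plus five library-drug doses (not always all listed) in √10 steps.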
# [2] = compound: COC1=C(C=C(C=C1)C2=CC3=NC=CN3C(=N2)NC4=C(C=CC=N4)C(=O)N)OC [BAY61-3606] + Cc1nc(Nc2ncc(C(=O)Nc3c(C)cccc3Cl)s2)cc(N2CCN(CCO)CC2)n1 [Dasatinib] (partner 0.075 µM)
# Summary of the method: as §1
# [3] = compound: COc1cccc2c1C(=O)c1c(O)c3c(c(O)c1C2=O)C[C@@](O)(C(=O)CO)C[C@@H]3O[C@H]1C[C@H](N)[C@H](O)[C@H](C)O1 [Doxorubicin] + CC(=O)Nc1cccc(-n2c(=O)n(C3CC3)c(=O)c3c(Nc4ccc(I)cc4F)n(C)c(=O)c(C)c32)c1 [Trametinib] (partner 0.02 µM)
# Summary of the method: as §1
# [4] = compound: COC1=C(C=C(C=C1)C2=CC3=NC=CN3C(=N2)NC4=C(C=CC=N4)C(=O)N)OC [BAY61-3606] + CC(C)C[C@H](NC(=O)[C@H](Cc1ccccc1)NC(=O)c1cnccn1)B(O)O [Bortezomib] (partner 0.002 µM)
# Summary of the method: as §1
Cell Line,relative viability ([1]; first compound 0.001 µM),relative viability ([1]; first compound 0.003162 µM),relative viability ([1]; first compound 0.01 µM),relative viability ([1]; first compound 0.03162 µM),relative viability ([1]; first compound 0.1 µM),relative viability ([2]; first compound 0.02 µM),relative viability ([2]; first compound 0.06325 µM),relative viability ([2]; first compound 0.2 µM),relative viability ([2]; first compound 0.6325 µM),relative viability ([2]; first compound 2 µM),relative viability ([3]; first compound 0.001 µM),relative viability ([3]; first compound 0.003162 µM),relative viability ([3]; first compound 0.01 µM),relative viability ([3]; first compound 0.03162 µM),relative viability ([3]; first compound 0.1 µM),relative viability ([4]; first compound 0.02 µM),relative viability ([4]; first compound 0.06325 µM),relative viability ([4]; first compound 0.2 µM),relative viability ([4]; first compound 0.6325 µM),relative viability ([4]; first compound 2 µM)
SK-LU-1,0.85,0.812,0.76,0.507,0.333,0.2,0.148,0.148,0.169,0.152,0.375,0.528,0.445,0.361,0.282,1.38,1.15,1.12,1.21,0.961
COR-L23,0.964,1.06,0.918,0.64,0.221,0.609,0.548,0.504,0.467,0.316,0.54,0.526,0.545,0.254,0.149,1.06,1.12,0.934,0.962,0.714
NCI-H2126,1.29,1.12,0.884,1.12,1.28,0.676,0.599,0.573,0.567,0.356,0.6,0.572,0.561,0.526,0.601,1.11,1.13,1.08,1.08,1.07
LCLC-103H,0.767,0.82,0.786,0.66,0.758,0.537,0.407,0.465,0.55,0.446,0.704,0.725,0.697,0.65,0.623,1.28,1.01,1.03,1.07,1.05
NCI-H1975,0.998,1,0.879,0.855,0.444,0.378,0.31,0.367,0.282,0.253,0.256,0.332,0.376,0.234,0.248,0.427,0.349,0.421,0.395,0.244
NCI-H2085,1.05,0.981,1.08,0.923,0.855,0.281,0.226,0.285,0.248,0.25,0.623,0.557,0.564,0.472,0.496,1.11,1.07,1.06,1.13,0.953
COR-L 105,1.02,0.943,0.9,0.62,0.7,0.325,0.332,0.339,0.333,0.203,0.452,0.483,0.423,0.423,0.377,0.85,0.688,0.622,0.807,0.388
NCI-H23,,0.863,1.03,0.855,0.981,0.801,0.713,0.645,0.606,0.677,0.326,0.45,0.344,0.334,0.45,0.97,1.36,0.871,1.13,0.77
PC-14,1,0.967,0.998,0.912,0.931,0.269,0.249,0.264,0.287,0.176,0.751,0.74,0.536,0.162,0.0928,0.829,0.883,0.801,0.949,0.728
NCI-H2087,,1.1,1.03,0.851,0.693,1.01,0.858,0.906,0.79,0.635,0.17,0.201,0.158,0.172,0.166,0.908,0.862,0.869,0.759,0.746
NCI-H1755,0.981,0.949,0.903,0.971,0.937,0.415,0.412,0.432,0.397,0.317,0.791,0.804,0.784,0.77,0.88,0.953,0.961,0.957,1.07,0.923
NCI-H2228,0.805,0.992,0.689,0.651,0.363,0.572,0.498,0.571,0.46,0.278,0.178,0.533,0.411,0.356,0.165,1.32,1.17,0.916,1.22,0.567
EMC-BAC-2,1.15,1.06,0.861,0.595,0.582,0.359,0.323,0.353,0.298,0.276,0.807,0.633,0.576,0.297,0.36,1.11,1.13,1.06,1.09,1.08
NCI-H2009,1.13,1.18,1.15,0.947,0.946,0.318,0.288,0.281,0.233,0.142,0.294,0.287,0.268,0.171,0.153,1.07,1.02,0.961,1.02,0.83
NCI-H661,1.01,1,0.954,0.826,0.542,0.985,0.835,0.861,0.886,0.702,0.613,0.604,0.488,0.401,0.388,0.896,0.713,0.767,0.724,0.556
NCI-H838,1.1,1.07,1.06,0.85,0.438,0.284,0.299,0.291,0.251,0.237,0.515,0.612,0.536,0.294,0.239,0.954,0.738,0.748,0.822,0.501

Cell Line,relative viability ([1]; first compound 0.001 µM),relative viability ([1]; first compound 0.003162 µM),relative viability ([1]; first compound 0.01 µM),relative viability ([1]; first compound 0.03162 µM),relative viability ([1]; first compound 0.1 µM),relative viability ([2]; first compound 0.02 µM),relative viability ([2]; first compound 0.06325 µM),relative viability ([2]; first compound 0.2 µM),relative viability ([2]; first compound 0.6325 µM),relative viability ([2]; first compound 2 µM),relative viability ([3]; first compound 0.001 µM),relative viability ([3]; first compound 0.003162 µM),relative viability ([3]; first compound 0.01 µM),relative viability ([3]; first compound 0.03162 µM),relative viability ([3]; first compound 0.1 µM),relative viability ([4]; first compound 0.02 µM),relative viability ([4]; first compound 0.06325 µM),relative viability ([4]; first compound 0.2 µM),relative viability ([4]; first compound 0.6325 µM),relative viability ([4]; first compound 2 µM)
NCI-H1915,1.1,1.11,1.02,1.06,1.1,0.313,0.312,0.344,0.314,0.272,0.306,0.31,0.313,0.312,0.303,0.929,1,0.9,0.925,0.913
NCI-H441,,1.04,0.897,0.48,0.368,0.614,0.655,0.54,0.521,0.438,0.426,0.471,0.45,0.205,0.188,0.729,0.51,0.479,0.607,0.434
ChaGo-K-1,1.03,0.946,0.835,0.937,0.826,0.566,0.547,0.591,0.548,0.596,0.984,0.858,0.661,0.926,0.86,1.22,0.933,1.03,0.917,1.1
NCI-H1355,0.97,1.01,0.884,0.91,0.897,0.68,0.627,0.65,0.662,0.67,0.457,0.45,0.472,0.43,0.462,1.19,1.07,1.17,1.27,1.21
NCI-H1651,0.842,0.929,0.737,0.48,0.222,0.379,0.459,0.387,0.32,0.318,0.82,0.843,0.817,0.707,0.796,1.03,0.99,0.911,0.941,0.952
NCI-H2023,0.567,0.934,0.507,0.461,0.17,0.639,0.601,0.554,0.525,0.334,0.456,0.513,0.437,0.151,0.11,1.1,1.08,1.09,1.24,0.735
LU99A,0.832,0.915,0.769,0.721,0.802,0.561,0.509,0.505,0.51,0.303,0.521,0.614,0.628,0.592,0.635,1.14,1.21,1.18,1.12,0.709
NCI-H322M,0.92,0.898,0.905,0.717,0.562,0.247,0.232,0.256,0.233,0.224,0.478,0.565,0.52,0.542,0.498,1.27,1.27,1.19,1.1,1.14
LOU-NH91,0.742,0.879,0.944,0.931,0.839,0.538,0.495,0.513,0.538,0.489,,0.724,0.766,0.766,0.654,0.52,0.485,0.462,0.467,0.454
NCI-H727,0.894,1.22,1.03,0.725,1.05,0.364,0.438,0.339,0.333,0.386,0.401,0.382,,0.397,0.382,0.844,0.822,0.872,0.856,0.829
RERF-LC-KJ,0.9,0.944,0.81,0.761,0.867,0.843,0.856,0.702,0.886,0.517,0.659,1.02,0.696,0.514,0.513,1.2,1.13,1.06,1.17,0.85
H3255,0.791,0.821,0.973,0.818,0.863,0.411,0.304,0.352,0.335,0.462,,0.62,0.633,0.518,0.591,0.932,0.611,0.724,0.822,0.725
LXF-289,0.958,0.975,0.97,1.09,0.98,0.261,0.205,0.187,0.187,0.129,0.666,0.697,0.675,0.723,0.738,0.985,1.03,0.992,1.04,0.99
HOP-62,1.05,1.07,1.06,1.11,1.16,0.744,0.729,0.691,0.844,0.634,0.373,0.389,0.413,0.411,0.373,0.869,,1.16,0.443,0.723
BEN,0.978,0.678,0.612,0.49,0.582,0.342,0.309,0.296,0.318,0.321,1.02,0.854,0.897,0.723,0.968,0.99,0.829,0.764,0.799,0.931
